Results filed as inconclusive are left out.
Molecular target: Solute carrier family 2, facilitated glucose transporter member 1 (Homo sapiens) (UniProt P11166)
Experiment: SLC2A1-mediated glucose transport in cells – cell-based, flow cytometry, glucose FRET sensor, HEK293 JumpIN TRex, wild type, dose response (AID 1794830)
Details: HEK293 JumpIN SLC2A1-OE

Sequence of Solute carrier family 2, facilitated glucose transporter member 1 (Homo sapiens) (P11166 whole entry, looked up): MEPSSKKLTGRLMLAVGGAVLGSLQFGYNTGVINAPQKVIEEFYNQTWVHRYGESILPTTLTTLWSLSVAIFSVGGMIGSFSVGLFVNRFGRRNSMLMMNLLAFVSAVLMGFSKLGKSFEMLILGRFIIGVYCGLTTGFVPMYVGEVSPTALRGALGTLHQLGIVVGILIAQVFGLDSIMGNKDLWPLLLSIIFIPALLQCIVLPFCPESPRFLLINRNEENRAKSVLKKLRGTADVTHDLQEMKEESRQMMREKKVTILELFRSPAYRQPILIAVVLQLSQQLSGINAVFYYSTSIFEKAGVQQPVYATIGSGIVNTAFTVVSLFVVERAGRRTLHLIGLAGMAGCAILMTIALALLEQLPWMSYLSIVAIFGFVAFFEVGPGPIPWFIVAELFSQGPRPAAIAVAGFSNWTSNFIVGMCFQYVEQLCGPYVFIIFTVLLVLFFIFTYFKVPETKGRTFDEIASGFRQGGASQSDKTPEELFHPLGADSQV

OC[C@H]1OC(O)[C@H](O)[C@@H](O)[C@@H]1O (stereo partly specified)
EC50 (substrate transport, FRET signal increase): 527 µM
